Where two headings read alike, the source gives them in different places.
Columns and labels:
[1] = system: allergic airway inflammation; parameters: method as in PMID 22266348; conditions: acute murine model; compared with Zileuton; cited from earlier work
soybean LOX-1 [2] = molecular target: T1, soybean LOX-1 (Glycine max, UniProt P08170); assay: Enzyme kinetics study (Michaelis–Menten, Lineweaver–Burk); type: biochemical; parameters: purchased; conditions: for type of inhibition: Lineweaver–Burk plot; for Ki: from slope of Lineweaver–Burk plot vs inhibitor concentration, read-out: Ki (inhibitor constant)
T1 sequence (P08170 1-839): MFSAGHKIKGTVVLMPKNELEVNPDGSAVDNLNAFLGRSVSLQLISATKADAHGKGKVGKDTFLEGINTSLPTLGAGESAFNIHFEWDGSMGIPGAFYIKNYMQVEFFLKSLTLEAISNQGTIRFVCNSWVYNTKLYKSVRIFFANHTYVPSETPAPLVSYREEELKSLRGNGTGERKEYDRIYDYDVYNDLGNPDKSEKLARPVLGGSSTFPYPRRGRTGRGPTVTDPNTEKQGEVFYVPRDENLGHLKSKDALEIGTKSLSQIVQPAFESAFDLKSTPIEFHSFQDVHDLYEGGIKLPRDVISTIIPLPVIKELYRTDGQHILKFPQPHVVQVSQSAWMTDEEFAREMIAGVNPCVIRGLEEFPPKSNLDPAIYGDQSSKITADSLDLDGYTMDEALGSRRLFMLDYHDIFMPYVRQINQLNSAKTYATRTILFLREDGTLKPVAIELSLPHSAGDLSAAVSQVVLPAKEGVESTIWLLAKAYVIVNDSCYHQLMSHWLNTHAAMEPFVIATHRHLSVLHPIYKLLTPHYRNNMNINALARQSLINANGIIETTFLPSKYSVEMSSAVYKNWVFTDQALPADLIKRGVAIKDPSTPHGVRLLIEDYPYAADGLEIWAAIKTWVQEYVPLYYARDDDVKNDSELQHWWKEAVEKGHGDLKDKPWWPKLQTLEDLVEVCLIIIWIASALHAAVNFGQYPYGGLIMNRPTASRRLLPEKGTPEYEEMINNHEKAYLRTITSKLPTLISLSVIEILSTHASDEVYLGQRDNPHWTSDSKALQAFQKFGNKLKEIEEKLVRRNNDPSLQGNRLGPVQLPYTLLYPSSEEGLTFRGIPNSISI
Method: Since compounds 3e and tHGA (3a) are competitive inhibitors, there were no changes in maximal velocity.
Kinetics study: Enzyme kinetics was performed similar to the above inhibition assay with slight modification. […] About 10 μL each of 4 linoleic acid substrate concentrations (0.2, 0.3, 0.4, and 0.5 mM) was added to initiate the enzymatic conversion. End product of the reaction was measured at 234 nm over a period of 10 min, with readings taken every 30 s. The type of inhibition (competitive, uncompetitive, noncompetitive) was determined by nonlinear regression Michaelis–Menten enzyme kinetics and the corresponding Lineweaver–Burk plots using 3 concentrations of each inhibitor: 0, 1.57, and 3.13 μg/mL. All experiments were performed in triplicate and the average values and standard errors were plotted. The Km and Vmax values were calculated from the nonlinear regression fitting curve of GraphPad Prism 5.

soybean LOX-1 [3] = molecular target: T1, soybean LOX-1; parameters: purchased; method as in PMID 25100256; conditions: data published in previous work, read-out: IC50 Value (μM) Mean ± SEM, cited from earlier work
soybean LOX-1 [4] = molecular target: T1, soybean LOX-1; assay: In vitro soybean 15-lipoxygenase (LOX) inhibition assay; conditions: for inhibition at 100 µg/mL: read-out: % Inhibition (100 μg/mL); for solubility of the compound in the 15-LOX assay: assay could not be carried out
Method: Briefly, sodium phosphate buffer (160 μL, 100 mM, pH 8.0), test sample (10 μL), and soybean 15-LOX (1.13.11.12) type I-B solution (20 μL, 320 U/well) were mixed and incubated at room temperature for 15 min. The substrate linoleic acid (10 μL, 0.6 mM) solution was added to initiate the reaction. End product from the enzymatic conversion was measured at absorbance of 234 nm over a period of 6 min and the assay was performed in triplicate. Dimethyl sulfoxide (DMSO) was used as a solvent to dissolve test samples and reference standard. […] IC50 values were calculated by the nonlinear regression fitting curve of GraphPad Prism 5. The percentage of inhibition can be calculated by the following formula [10, 11]: Inhibitory% = ODcontrol−ODsample/ODcontrol

IC50 (soybean LOX-1 [4]) [µM]	inhibition at 100 µg/mL (soybean LOX-1 [4]) [%]	melting point [°C]	Compound	other results
			CC(=O)c1c(O)cc(O)c(C/C=C(\C)CCC=C(C)C)c1O [Compound 3a, 2,4,6-Trihydroxy-3-geranylacetophenone]	prevention of allergic airway inflammation [1]: as effective as Zileuton; type of inhibition (soybean LOX-1 [2]): competitive; Ki (soybean LOX-1 [2]): 41.1 µM; IC50 (soybean LOX-1 [3]; listed as 3a (tHGA)): 23.6 ± 1.7 µM
			CC(C)=CCC/C(C)=C/Cc1c(O)cc(O)c(C(=O)C(C)C)c1O [Compound 3b]	IC50 (soybean LOX-1 [3]): 27.6 ± 3.6 µM
			CCC(=O)c1c(O)cc(O)c(C/C=C(\C)CCC=C(C)C)c1O [Compound 3c, (E)-1-(3-(3,7-dimethylocta-2,6-dienyl)-2,4,6-trihydroxyphenyl)propan-1-one]	IC50 (soybean LOX-1 [3]): 12.3 ± 0.6 µM
15.3 ± 0.5	90.7 ± 5	116 to 118	CCCC(=O)c1c(O)cc(O)c(C/C=C(\C)CCC=C(C)C)c1O [Compound 3d, (E)-1-(3-(3,7-dimethylocta-2,6-dienyl)-2,4,6-trihydroxyphenyl)butan-1-one]	
			CCCCC(=O)c1c(O)cc(O)c(C/C=C(\C)CCC=C(C)C)c1O [Compound 3e, (E)-1-(3-(3,7-dimethylocta-2,6-dienyl)-2,4,6-trihydroxyphenyl)pentan-1-one]	fold less active than the standard drug NDGA (soybean LOX-1 [4]; IC50 compared with NDGA): 100 fold; type of inhibition (soybean LOX-1 [2]): competitive; Ki (soybean LOX-1 [2]): 36.1 µM; IC50 (soybean LOX-1 [3]): 10.3 µM
			CC(C)=CCC/C(C)=C/Cc1c(O)cc(O)c(C(=O)C2CCCCC2)c1O [Compound 3f]	IC50 (soybean LOX-1 [3]): 26.3 ± 1.3 µM
72.1 ± 1.2	94.8 ± 5.2		CC(=O)c1c(O)cc(O)c(CC=C(C)C)c1O [Compound 4a, 1-(2,4,6-trihydroxy-3-(3-methylbut-2-enyl)phenyl)ethanone]	
61 ± 1.1	78.1 ± 3.9	138 to 140	CCC(=O)c1c(O)cc(O)c(CC=C(C)C)c1O [Compound 4c, 1-(2,4,6-trihydroxy-3-(3-methylbut-2-enyl)phenyl)propan-1-one]	
35.1 ± 1.3	79.4 ± 6.7	133 to 135	CCCCC(=O)c1c(O)cc(O)c(CC=C(C)C)c1O [Compound 4e, 1-(2,4,6-trihydroxy-3-(3-methylbut-2-enyl)phenyl)pentan-1-one]	
52.6 ± 1	93.7 ± 3.8		CC(C)=CCc1c(O)cc(O)c(C(=O)C2CCCCC2)c1O [Compound 4f, Cyclohexyl(2,4,6-trihydroxy-3-(3-methylbut-2-enyl)phenyl)methanone]	
95.4 ± 4	95.2 ± 3.2	203 to 205	CC(C)=CCc1c(O)cc(O)c(C(=O)/C=C/c2ccccc2)c1O [Compound 4g, (E)-3-phenyl-1-(2,4,6-trihydroxy-3-(3-methylbut-2-enyl)phenyl)prop-2-en-1-one]	
			CCCCC(=O)c1c(OC)cc(OC)c(C/C=C(\C)CCC=C(C)C)c1O [Compound 5e, (E)-1-(3-(3,7-dimethylocta-2,6-dienyl)-2-hydroxy-4,6-dimethoxyphenyl)pentan-1-one]	solubility of the compound in the 15-LOX assay (soybean LOX-1 [4]): insolubility

Compound	IC50 (soybean LOX-1 [4]) [µM]	inhibition at 100 µg/mL (soybean LOX-1 [4]) [%]	melting point [°C]	other results
CC(C)=CCc1c(O)cc(O)c(C(=O)C(C)C)c1O [Compound 4b, 2-methyl-1-(2,4,6-trihydroxy-3-(3-methylbut-2 enyl)phenyl)propan-1-one]	53.7 ± 0.7	82.5 ± 7.3		
CCCC(=O)c1c(O)cc(O)c(CC=C(C)C)c1O [Compound 4d, 1-(2,4,6-trihydroxy-3-(3-methylbut-2-enyl)phenyl)butan-1-one]	39.5 ± 1.2	86.2 ± 6.9		
COc1cc(OC)c(C(C)=O)c(O)c1C/C=C(\C)CCC=C(C)C [Compound 5a, (E)-1-(3-(3,7-dimethylocta-2,6-dienyl)-2-hydroxy-4,6-dimethoxyphenyl)ethanone]			72 to 74	solubility of the compound in the 15-LOX assay (soybean LOX-1 [4]): insolubility
COc1cc(OC)c(C(C)=O)c(O)c1CC=C(C)C [Compound 6a, 1-(2-hydroxy-4,6-dimethoxy-3-(3-methylbut-2-enyl)phenyl)ethanone]			97 to 99	solubility of the compound in the 15-LOX assay (soybean LOX-1 [4]): insolubility
CCCCC(=O)c1c(OC)cc(OC)c(CC=C(C)C)c1O [Compound 6e, 1-(2-hydroxy-4,6-dimethoxy-3-(3-methylbut-2-enyl)phenyl)pentan-1-one]			84 to 86	solubility of the compound in the 15-LOX assay (soybean LOX-1 [4]): insolubility
